# Experimental data reported in US7683061B2, “Triazine dimers for the treatment of autoimmune diseases” (ProMetic BioSciences Inc., priority 2003, dated 2010).
# Like-named read-outs stand apart in the source and are kept apart here.
# Assays:
# [1] = test system: peripheral blood mononuclear leukocytes (PBML); assay: PBML DNA synthesis (thymidine); format: cell-based, human; conditions: for IC50: Homo sapiens, Leukocyte; for effect on DNA synthesis (in words): resting and stimulated (ConA and PWM) PBML
# Description: PBML were obtained from the peripheral blood of healthy volunteers. Blood was submitted to gradient centrifugation with Lympholyte-poly (Cedarlane, Hornby, Canada). The layer, which contains the mononuclear leukocytes, was collected and the cells washed three times in PBS. Cells were then suspended in RPMI (Gibco, Burlington, Canada) supplemented with […] (cyclone, Logan USA). Viability was greater than 99% as determined by trypan blue exclusion.
# PBML were resuspended at 2×10^6 cells mL. 100 μL of PBML (2×10^5 cells) were incubated in a 96-well microtiter plate for 48 h in the presence or absence of compound or protein A. Cells were quiescent or stimulated with concanavalin A (ConA; T-cells) or pokeweed mitogen (PWM; B-cells). After incubation, cells were treated with MTT (cytotoxicity) or pulsed with 1 μCi of [^3]-thymidine (DNA synthesis), [^3H]-uridine (RNA synthesis) or [^3]-leucine (protein synthesis) for 6 h. Plates were harvested on a Tomteck and counted on a Microbeta β-counter.
# [2] = biological target: T1, Fc portion of human IgG (binding of protein A to human IgG); assay: Competitive protein A binding ELISA
# T1 construct: fused on or other part: Horseradish peroxidase chemically conjugated to the IgG (HRP-IgG)
# Outline: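 Protein A coated overnight at 4 °C and blocked with 2% BSA. Compound, diluted in PBS or PBS-20% DMSO, competed with HRP-conjugated human IgG for 1 h at 37 °C. Bound IgG detected with ABTS at 405 nm; IC50 is the concentration inhibiting 50% of protein A binding.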
# [3] = test system: female Lewis rats, adjuvant-induced arthritis; assay: Freund's adjuvant-induced arthritis (AIA); format: in vivo; conditions: for reduction of the inflammatory index: intravenous days −3, −2, −1, 12, 13, 14, 18, 19 and 20, from day 3 to day 5, FIG. 10
# Description: AIA was induced in female Lewis rats by the injection of lyophilized Mycobacterium butyricum suspended in mineral oil into the footpad. The development of aridity was monitored over a 3 weeks period post-adjuvant injection, inflammation peaks at day 3 following the adjuvant administration. Immune activation appears around day 14. Compounds were orally or intravenously administered at different doses at day −3, −2 and −1 pre-adjuvant injection and at different regimen as specified in the exponent starting from day 10 through 21 post-adjuvant injection or animals were treated with oral admiration of compound 19a from day −3 to day 21. Body weight was recorded. The arthritis index, which is a measure of inflammation (oedema), redness and stiffness of the articulations, was used to monitor the development of the disease. The degree of arthritis was determined by measuring two perpendicular diameters of the ankles in the mediolateral and dorsoventral planes using a caliper. Joint circumference in millimeters is then calculated using a geometric formula. Both the incidence and severity of the arthritis was evaluated. Incidence is defined as the number of rats with clinical evidence of joint inflammation during the study period.
# [4] = test system: mice, oxazolone-induced DTH; assay: Oxazolone-induced delayed-type hypersensitivity (DTH); format: in vivo; conditions: for inflammation as seen by ear thickness: administered orally at day 0, 1 and 2, FIG. 8
# Method: Compounds were tested for their ability to treat oxazolone-induced delayed-type hypersensitivity (DTH) in mice. On day 0, mice were sensitized with 100 μL of oxazolone in 5% acetone. On day 0, 1 and 2, mice were treated by intravenous or oral administrations of the vehicle (control) or methotrexate (MTX, positive control/IV) or hydrocortisone (positive control/PO) or the compound at 50 mg/kg to 300 mg/kg of body weight. Mice were challenged with an application of 50 μL of oxazolone on the surface of the right ear (first challenge, day 3; second challenge, day 10). Ear thickness was measured on day 4 to day 7, and on day 11 to 14. Redness and crust formation was also observed. Mice were sacrificed on day 14. TDTH (CD4) cells play an important role in regulating the intensity of the DTH response. Compounds may exert an inhibitory influence on the DTH response through its inhibition of T-cell activation and DNA, RNA and or protein synthesis.
# [5] = Table 1, PBS-20% DMSO, read-out: IC50 (μM): Assay in PBS-20% DMSO
"IC50 ([2]; Table 1, PBS, read-out: IC50 (μM): Assay in PBS)","IC50 ([2]; Table 2, PBS-20% DMSO, n = 5 or 6, read-out: IC50 (n = 5 or 6) PBS-20% DMSO)","IC50 ([2]; Table 2, PBS, n = 5 or 6, read-out: IC50 (n = 5 or 6) PBS)",Structure (SMILES),IC50 ([1]; ConA stimulated PBML),IC50 ([1]; PWM stimulated PBML),IC50 ([1]; Resting PBML),effect on DNA synthesis (in words) [1],"IC50 [2, 5]",reduction of the inflammatory index [3],inflammation as seen by ear thickness [4],"inhibition of chronic inflammation (days 12 to 21) ([3]; IV, days 12 to 19)","inhibition of chronic inflammation (days 12 to 21) ([3]; PO, day 16)","inhibition of inflammation ([3]; oral administration, acute inflammation, compared to the control and methotrexate)","inhibition of inflammation ([3]; orally every day (days −3 to 21), from day 13 through day 22, FIG. 12)",potency compared to methotrexate ([4]; FIGS. 6 and 7)
,,,Oc1ccc(CCNc2nc(NCCNc3nc(NCCc4ccc(O)cc4)nc(Nc4ccccc4)n3)nc(Nc3ccccc3)n2)cc1 [Compound 1],1420 nM,770 nM,2490 nM,suppress,50 µM,20%,significant reduction of the inflammation,,,,,
0.06 µM,0.0035 µM,0.088 µM,Nc1ccc(CCNc2nc(Nc3ccc(CCNc4nc(NCCO)nc(Nc5cccc(N)c5)n4)cc3)nc(Nc3cccc(N)c3)n2)cc1 [Compound 19a],1570 nM,4380 nM,1900 nM,suppress,0.003 µM,20%,significant reduction of the inflammation,strong and significant inhibition of inflammation,strong and significant inhibition of inflammation,significant inhibition of inflammation,up to 50%,equipotent to methotrexate
